Results from patent US4537777A, “A52688 Antibiotics and process for their production” (priority 1983, dated 1985).
Read-outs that look alike come from different tables or passages of the source.

Key:
[1] = test system: Saccharomyces pastorianus; test: standard disc-plate assay; assay type: cell-based; conditions: read-out: Zone Diameters
Pseudomonas solanacearum = test: microbe, parasite or virus in culture; assay type: cell-based; conditions: Ralstonia solanacearum, read-out: Zone Diameters
Escherichia coli = test: standard disc-plate assay; assay type: cell-based
Procedure: In Table IX the standard discplate-assay activity of the A52688 factors is summarized. Activity is measured as the diameter (in mm) of the observed zone of inhibition; the diameter of the disc used in each case was 6.35 mm.

Micrococcus luteus = test: standard disc-plate assay; assay type: cell-based; conditions: read-out: Zone Diameters
Lewis lung tumor = test: tumor growth test in mice; assay type: in vivo; conditions: tests in mice
Source text: (§1) A52688 factors A, C, D, E, F, G, H, J and K and the specified acyl esters of factors A, C, D, E, G, H, J and K are especially useful as oncolytic agents.

solid leukemia P1534J = test: tumor growth test in mice; assay type: in vivo; conditions: tests in mice
Source text: as §1

lymphosarcoma 6L3 HED = test: tumor growth test in mice; assay type: in vivo; conditions: tests in mice
Source text: as §1

[2] = test system: plasma cell myeloma X-5563; test: tumor growth test in mice; assay type: in vivo; conditions: tests in mice
Source text: as §1

ovarian M-5 tumor = test: tumor growth test in mice; assay type: in vivo; conditions: tests in mice
Source text: as §1

Serratia marcescens = test: standard disc-plate assay; assay type: cell-based; conditions: read-out: Zone Diameters
Salmonella gallinarium = test: standard disc-plate assay; assay type: cell-based; conditions: read-out: Zone Diameters
Bacillus subtilis = test: standard disc-plate assay; assay type: cell-based; conditions: read-out: Zone Diameters
Pseudomonas aeruginosa = test: standard disc-plate assay; assay type: cell-based; conditions: read-out: Zone Diameters
[3] = test system: Bacillus stereothermophilus; test: standard disc-plate assay; assay type: cell-based; conditions: read-out: Zone Diameters
Proteus vulgaris = test: standard disc-plate assay; assay type: cell-based; conditions: read-out: Zone Diameters
[4] = test system: Trichophyton mentagroprophytes; test: standard disc-plate assay; assay type: cell-based; conditions: read-out: Zone Diameters
Adenocarcinoma 755 = test: murine-transplanted tumor adenocarcinoma 755 in mice; assay type: in vivo
Procedure: as §1
Table X summarizes the results of experiments in which mice bearing the murine-transplanted tumor adenocarcinoma 755 were treated with compounds of this invention. In each test the compound was administered by the intraperitoneal route at specified dose levels. The compound was administered over a ten-day period, either on a daily basis or on days one, five and nine, as indicated.

Mycobacterium avium = test: standard disc-plate assay; assay type: cell-based; conditions: read-out: Zone Diameters
Staphylococcus aureus = test: standard disc-plate assay; assay type: cell-based; conditions: read-out: Zone Diameters
Candida albicans = test: standard disc-plate assay; assay type: cell-based; conditions: read-out: Zone Diameters
acute toxicity in mice = conditions: mouse, in vivo, formulated in aqueous PVP
Source text: ^a Compounds formulated in aqueous PVP
^b Route test compound administered

Neurospora crassa = test: standard disc-plate assay; assay type: cell-based; conditions: read-out: Zone Diameters
moisture absorption = assay type: physicochemical
[5] = read-out: Zone Diameters, in minimal medium, conc 0.1 mg/ml, disc 6.35 mm
[6] = ip, intraperitoneal, read-out: Intraperitoneal LD50

[C-]#[N+]C(=CC1=C[C@@H](O)[C@H](O)CC1)C(=CC1CCC(OC(=O)C=C(C)C)CC1)[N+]#[C-] (relative stereo) [Factor A] showed a zone of inhibition at 100 µg/mL [1] of 20 mm, a zone of inhibition at 100 µg/mL (Pseudomonas solanacearum; conc 0.1 mg/ml) of 26 mm and a zone of inhibition at 100 µg/mL (Escherichia coli; read-out: Zone Diameters, conc 0.1 mg/ml, disc 6.35 mm) of 24 mm. For the same molecule, the zone of inhibition at 100 µg/mL (Escherichia coli; [5]) was 20 mm, the zone of inhibition at 100 µg/mL (Micrococcus luteus) was 36 mm and the growth of tumor (Lewis lung tumor) was “inhibited the growth”. For the same molecule, the growth of tumor (solid leukemia P1534J) was “inhibited the growth”, the growth of tumor (lymphosarcoma 6L3 HED) was “inhibited the growth” and the growth of tumor [2] was “inhibited the growth”. The growth of tumor (ovarian M-5 tumor) was “inhibited the growth”, the zone of inhibition at 100 µg/mL (Serratia marcescens) was 20 mm and the zone of inhibition at 100 µg/mL (Salmonella gallinarium) was 21 mm. The zone of inhibition at 100 µg/mL (Bacillus subtilis) was 30 mm, the zone of inhibition at 100 µg/mL (Pseudomonas aeruginosa) was 23 mm and the zone of inhibition at 100 µg/mL [3] was 35 mm. For the same molecule, the zone of inhibition at 100 µg/mL (Proteus vulgaris) was 24 mm, the zone of inhibition at 100 µg/mL [4] was 45 mm and the “Percent Tumor Inhibition” value (Adenocarcinoma 755; 0.25 mg/kg i.p., daily for 10 days) was 3%. The “Toxic Deaths” value (Adenocarcinoma 755; 0.25 mg/kg i.p., daily for 10 days, of 10 mice tested (9 for factor E)) was 0, the “Percent Tumor Inhibition” value (Adenocarcinoma 755; 0.30 mg/kg i.p., daily for 10 days) was 55% and the “Toxic Deaths” value (Adenocarcinoma 755; 0.30 mg/kg i.p., daily for 10 days, of 10 mice tested) was 1. For the same molecule, the “Percent Tumor Inhibition” value (Adenocarcinoma 755; 0.35 mg/kg i.p., daily for 10 days) was 69%, the “Toxic Deaths” value (Adenocarcinoma 755; 0.35 mg/kg i.p., daily for 10 days, of 10 mice tested) was 1 and the “Percent Tumor Inhibition” value (Adenocarcinoma 755; 0.40 mg/kg i.p., daily for 10 days) was 91%. The “Toxic Deaths” value (Adenocarcinoma 755; 0.40 mg/kg i.p., daily for 10 days, of 9 mice tested) was 6, the growth of tumor (Adenocarcinoma 755; tests in mice) was “inhibited the growth” and the zone of inhibition at 100 µg/mL (Mycobacterium avium) was 14 mm. For the same molecule, the zone of inhibition at 100 µg/mL (Staphylococcus aureus) was 26 mm, the zone of inhibition at 100 µg/mL (Candida albicans) was 33 mm and the LD50 (acute toxicity in mice; [6]) was 3.12 mg/kg. It also gave an LD50 (acute toxicity in mice; oral, read-out: Oral LD50) of 8.84 mg/kg and a zone of inhibition at 100 µg/mL (Neurospora crassa) of 39 mm.

With [C-]#[N+]C(=CC1CCC(OC(=O)C=C(C)C)CC1)C(=CC1(OC(C)=O)C=CC(O)CC1)[N+]#[C-] (centres unmarked) [Factor G] the zone of inhibition at 100 µg/mL ([1]; conc 0.1 mg/ml, disc 6.35 mm, ^b overgrowth: factors B, C, F) was 24 mm, the zone of inhibition at 100 µg/mL (Pseudomonas solanacearum) was 31 mm and the zone of inhibition at 100 µg/mL (Escherichia coli; conc 0.1 mg/ml, disc 6.35 mm, read-out: Zone Diameters) was 20 mm. It also gave a zone of inhibition at 100 µg/mL (Escherichia coli; in minimal medium, conc 0.1 mg/ml, disc 6.35 mm, read-out: Zone Diameters) of 18 mm, a zone of inhibition at 100 µg/mL (Micrococcus luteus; conc 0.1 mg/ml, disc 6.35 mm) of 32 mm and a zone of inhibition at 100 µg/mL (Serratia marcescens; conc 0.1 mg/ml, disc 6.35 mm, ^b overgrowth: factor C) of 17 mm. For the same molecule, the zone of inhibition at 100 µg/mL (Salmonella gallinarium; conc 0.1 mg/ml, disc 6.35 mm) was 23 mm, the zone of inhibition at 100 µg/mL (Bacillus subtilis; conc 0.1 mg/ml, disc 6.35 mm) was 30 mm and the zone of inhibition at 100 µg/mL (Pseudomonas aeruginosa; conc 0.1 mg/ml, disc 6.35 mm) was 23 mm. For the same molecule, the zone of inhibition at 100 µg/mL ([3]; conc 0.1 mg/ml, disc 6.35 mm) was 33 mm, the zone of inhibition at 100 µg/mL (Proteus vulgaris; conc 0.1 mg/ml, disc 6.35 mm, ^b overgrowth: factors A, C, E, F, G) was 27 mm and the zone of inhibition at 100 µg/mL ([4]; conc 0.1 mg/ml, disc 6.35 mm) was 44 mm. The “Percent Tumor Inhibition” value (Adenocarcinoma 755; 0.50 mg/kg i.p., days 1, 5 and 9) was 10%, the “Toxic Deaths” value (Adenocarcinoma 755; 0.50 mg/kg i.p., days 1, 5 and 9, of 10 mice tested) was 0 and the “Percent Tumor Inhibition” value (Adenocarcinoma 755; 0.70 mg/kg i.p., days 1, 5 and 9) was 20%. The “Toxic Deaths” value (Adenocarcinoma 755; 0.70 mg/kg i.p., days 1, 5 and 9, of 10 mice tested) was 0, the “Percent Tumor Inhibition” value (Adenocarcinoma 755; 1.00 mg/kg i.p., days 1, 5 and 9) was 54% and the “Toxic Deaths” value (Adenocarcinoma 755; 1.00 mg/kg i.p., days 1, 5 and 9, of 10 mice tested) was 1. For the same molecule, the “Percent Tumor Inhibition” value (Adenocarcinoma 755; 1.40 mg/kg i.p., days 1, 5 and 9) was 72%, the “Toxic Deaths” value (Adenocarcinoma 755; 1.40 mg/kg i.p., days 1, 5 and 9, of 10 mice tested) was 6 and the “Percent Tumor Inhibition” value (Adenocarcinoma 755; 2.00 mg/kg i.p., days 1, 5 and 9) was 60%. For the same molecule, the “Toxic Deaths” value (Adenocarcinoma 755; 2.00 mg/kg i.p., days 1, 5 and 9, of 10 mice tested) was 7, the “Percent Tumor Inhibition” value (Adenocarcinoma 755; 2.80 mg/kg i.p., days 1, 5 and 9) was “toxic” and the “Toxic Deaths” value (Adenocarcinoma 755; 2.80 mg/kg i.p., days 1, 5 and 9, of 10 mice tested) was 10. For the same molecule, the zone of inhibition at 100 µg/mL (Mycobacterium avium; conc 0.1 mg/ml, disc 6.35 mm, ^b overgrowth: factor F) was 10 mm, the zone of inhibition at 100 µg/mL (Staphylococcus aureus; conc 0.1 mg/ml, disc 6.35 mm, ^b overgrowth: factor B) was 36 mm and the zone of inhibition at 100 µg/mL (Candida albicans; conc 0.1 mg/ml, disc 6.35 mm) was 35 mm. The LD50 (acute toxicity in mice; [6]) was 7.94 mg/kg and the zone of inhibition at 100 µg/mL (Neurospora crassa; conc 0.1 mg/ml, disc 6.35 mm) was 41 mm.

With [C-]#[N+]C(=CC1CCC(OC(=O)CC(C)C)CC1)C(=CC1(OC(C)=O)C=CC(O)CC1)[N+]#[C-] (centres unmarked) [Factor K] the zone of inhibition at 100 µg/mL [1] was 20 mm, the moisture absorption (moisture absorption) was “absorbs moisture readily” and the zone of inhibition at 100 µg/mL (Pseudomonas solanacearum; conc 0.1 mg/ml) was 19 mm. The zone of inhibition at 100 µg/mL (Escherichia coli; [5]) was 11 mm, the zone of inhibition at 100 µg/mL (Micrococcus luteus) was 29 mm and the zone of inhibition at 100 µg/mL (Serratia marcescens) was 11 mm. The zone of inhibition at 100 µg/mL (Salmonella gallinarium) was 17 mm, the zone of inhibition at 100 µg/mL (Bacillus subtilis) was 18 mm and the zone of inhibition at 100 µg/mL (Pseudomonas aeruginosa) was 11 mm. The zone of inhibition at 100 µg/mL [3] was 25 mm, the zone of inhibition at 100 µg/mL (Proteus vulgaris) was 19 mm and the zone of inhibition at 100 µg/mL [4] was 32 mm. For the same molecule, the zone of inhibition at 100 µg/mL (Mycobacterium avium) was 11 mm, the zone of inhibition at 100 µg/mL (Staphylococcus aureus) was 25 mm and the zone of inhibition at 100 µg/mL (Candida albicans) was 20 mm. The zone of inhibition at 100 µg/mL (Neurospora crassa) was 37 mm.
